Results reported in ChEMBL document CHEMBL1122992, “Phosphorus-nitrogen compounds. 26. Phosphaminimides. 2. 2,2'-Phosphinylidenebis(1,1,1-trimethylhydrazinium) iodide inner salts as agents affecting ganglionic transmission” (J Med Chem, 1985).

test system: Rattus norvegicus; assay: LD50 values was measured by using probit analysis method in rats; type: ADME, organism-based; settings: in vivo

SMILES | LD50
C[N+](C)(C)N=P([O-])(N[N+](C)(C)C)Oc1ccccc1.[I-] (stereo unspecified) | ~ 15 ug ml-1
C[N+](C)(C)NP(=O)(N[N+](C)(C)C)Oc1ccccc1.[I-].[I-] | 2.37 µg/mL
C[N+](C)(C)NP(=O)(N[N+](C)(C)C)c1ccccc1.[I-].[I-] | 2.15 µg/mL
C[N+](C)(C)[N-]P(=O)(N[N+](C)(C)C)c1ccccc1.[I-] (stereo unspecified) | ~ 15 ug ml-1
C[N+](C)(C)N=P([O-])(N[N+](C)(C)C)c1ccccc1.[I-] (stereo unspecified) | ~ 15 ug ml-1
C[N+](C)(C)[N-]P(=O)(N[N+](C)(C)C)Oc1ccccc1.[I-] (stereo unspecified) | 15 µg/mL
